Experimental data from US20240245682A1, “ALPHA-V-BETA-8 INTEGRIN INHIBITORS AND USES THEREOF” (Pliant Therapeutics, Inc., priority 2022, published 2024).

What was measured:
Assay in all cases: AlphaScreen proximity-based integrin binding assay with TGF-b1 LAP
Conditions in all cases: values given as ranges
[1] = molecular target: human integrin αVβ1 (Homo sapiens, UniProt P05556+P06756)
How it was run: (§1)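 Purified human integrin incubated with compound, TGF-b1 LAP, biotinylated anti-LAP antibody and acceptor beads for 2 h, then streptavidin donor beads 30 min, room temperature, in 50 mM Tris-HCl pH 7.5, 0.1% BSA, 1 mM CaCl2/MgCl2. AlphaScreen signal (680 nm excitation, 520-620 nm emission); IC50 by four-parameter fit.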

[2] = molecular target: human integrin αVβ6 (Homo sapiens, UniProt P06756+P18564)
human integrin αVβ6, sequence (P06756 31-992 limits assumed): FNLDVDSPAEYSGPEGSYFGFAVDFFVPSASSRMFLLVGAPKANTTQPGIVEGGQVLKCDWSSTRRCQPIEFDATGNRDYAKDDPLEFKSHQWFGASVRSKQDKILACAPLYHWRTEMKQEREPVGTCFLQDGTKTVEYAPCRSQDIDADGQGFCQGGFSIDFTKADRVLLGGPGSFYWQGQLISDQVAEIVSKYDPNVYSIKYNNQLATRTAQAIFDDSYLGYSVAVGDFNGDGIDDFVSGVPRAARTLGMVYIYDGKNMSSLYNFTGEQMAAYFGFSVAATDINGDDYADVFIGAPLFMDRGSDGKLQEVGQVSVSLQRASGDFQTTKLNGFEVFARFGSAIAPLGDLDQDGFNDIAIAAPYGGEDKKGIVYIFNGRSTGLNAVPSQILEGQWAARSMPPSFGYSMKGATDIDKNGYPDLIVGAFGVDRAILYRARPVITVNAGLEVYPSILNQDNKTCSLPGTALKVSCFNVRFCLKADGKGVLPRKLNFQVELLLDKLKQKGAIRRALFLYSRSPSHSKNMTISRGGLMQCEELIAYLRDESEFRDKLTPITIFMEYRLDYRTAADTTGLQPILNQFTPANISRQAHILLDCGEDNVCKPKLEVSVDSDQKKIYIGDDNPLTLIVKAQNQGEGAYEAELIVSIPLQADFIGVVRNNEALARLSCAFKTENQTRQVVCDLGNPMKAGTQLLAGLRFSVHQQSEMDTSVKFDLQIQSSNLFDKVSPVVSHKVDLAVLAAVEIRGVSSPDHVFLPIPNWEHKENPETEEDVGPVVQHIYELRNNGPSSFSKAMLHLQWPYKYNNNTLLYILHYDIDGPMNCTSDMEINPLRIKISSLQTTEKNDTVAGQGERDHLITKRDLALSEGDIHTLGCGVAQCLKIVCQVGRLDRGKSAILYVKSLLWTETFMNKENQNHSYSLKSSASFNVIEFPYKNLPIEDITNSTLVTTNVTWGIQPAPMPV
human integrin αVβ6, sequence (P18564 22-707 limits assumed): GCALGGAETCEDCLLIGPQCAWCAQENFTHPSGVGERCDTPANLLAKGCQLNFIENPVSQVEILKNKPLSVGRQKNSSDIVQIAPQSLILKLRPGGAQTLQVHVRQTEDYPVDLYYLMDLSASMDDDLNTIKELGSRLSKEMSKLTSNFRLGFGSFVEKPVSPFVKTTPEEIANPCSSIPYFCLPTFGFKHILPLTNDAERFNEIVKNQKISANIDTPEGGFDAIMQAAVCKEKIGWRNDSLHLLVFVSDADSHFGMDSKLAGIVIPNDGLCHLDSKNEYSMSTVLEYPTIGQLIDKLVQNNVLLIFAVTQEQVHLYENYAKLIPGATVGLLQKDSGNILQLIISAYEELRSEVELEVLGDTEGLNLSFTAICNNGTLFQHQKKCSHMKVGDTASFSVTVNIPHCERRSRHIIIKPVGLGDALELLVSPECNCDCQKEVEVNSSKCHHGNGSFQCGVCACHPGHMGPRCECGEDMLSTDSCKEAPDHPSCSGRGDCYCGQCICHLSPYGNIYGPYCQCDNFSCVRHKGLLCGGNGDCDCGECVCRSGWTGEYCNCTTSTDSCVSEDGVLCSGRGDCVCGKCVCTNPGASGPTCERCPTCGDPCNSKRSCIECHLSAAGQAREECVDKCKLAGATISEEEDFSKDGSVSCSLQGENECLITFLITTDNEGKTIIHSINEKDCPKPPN
How it was run: as §1

[3] = molecular target: human integrin αVβ8 (Homo sapiens, UniProt P06756+P26012)
human integrin αVβ8, sequence (P06756 31-992 limits assumed): as the sequence (P06756 31-992 limits assumed) above
human integrin αVβ8, sequence (P26012 43-684 limits assumed): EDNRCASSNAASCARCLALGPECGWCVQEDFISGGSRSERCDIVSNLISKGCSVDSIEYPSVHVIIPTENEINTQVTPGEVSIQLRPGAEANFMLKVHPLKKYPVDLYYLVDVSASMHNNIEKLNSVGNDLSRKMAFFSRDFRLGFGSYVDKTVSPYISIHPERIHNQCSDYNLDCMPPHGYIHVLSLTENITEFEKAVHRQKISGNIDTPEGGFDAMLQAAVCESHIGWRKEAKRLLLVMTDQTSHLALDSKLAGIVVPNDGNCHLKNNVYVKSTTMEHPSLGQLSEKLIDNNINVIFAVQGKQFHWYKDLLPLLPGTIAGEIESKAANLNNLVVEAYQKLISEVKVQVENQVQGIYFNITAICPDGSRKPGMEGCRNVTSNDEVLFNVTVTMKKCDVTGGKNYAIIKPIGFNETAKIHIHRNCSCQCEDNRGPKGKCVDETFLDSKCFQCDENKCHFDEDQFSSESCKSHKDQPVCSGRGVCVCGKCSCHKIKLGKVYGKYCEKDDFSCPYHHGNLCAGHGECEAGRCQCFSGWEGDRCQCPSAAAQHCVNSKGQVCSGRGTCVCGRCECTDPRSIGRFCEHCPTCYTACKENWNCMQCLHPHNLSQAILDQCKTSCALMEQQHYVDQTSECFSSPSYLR
How it was run: as §1

human integrin αVβ1, sequence (P06756 31-992 limits assumed): as the sequence (P06756 31-992 limits assumed) above
human integrin αVβ1, sequence (P05556 21-728 limits assumed): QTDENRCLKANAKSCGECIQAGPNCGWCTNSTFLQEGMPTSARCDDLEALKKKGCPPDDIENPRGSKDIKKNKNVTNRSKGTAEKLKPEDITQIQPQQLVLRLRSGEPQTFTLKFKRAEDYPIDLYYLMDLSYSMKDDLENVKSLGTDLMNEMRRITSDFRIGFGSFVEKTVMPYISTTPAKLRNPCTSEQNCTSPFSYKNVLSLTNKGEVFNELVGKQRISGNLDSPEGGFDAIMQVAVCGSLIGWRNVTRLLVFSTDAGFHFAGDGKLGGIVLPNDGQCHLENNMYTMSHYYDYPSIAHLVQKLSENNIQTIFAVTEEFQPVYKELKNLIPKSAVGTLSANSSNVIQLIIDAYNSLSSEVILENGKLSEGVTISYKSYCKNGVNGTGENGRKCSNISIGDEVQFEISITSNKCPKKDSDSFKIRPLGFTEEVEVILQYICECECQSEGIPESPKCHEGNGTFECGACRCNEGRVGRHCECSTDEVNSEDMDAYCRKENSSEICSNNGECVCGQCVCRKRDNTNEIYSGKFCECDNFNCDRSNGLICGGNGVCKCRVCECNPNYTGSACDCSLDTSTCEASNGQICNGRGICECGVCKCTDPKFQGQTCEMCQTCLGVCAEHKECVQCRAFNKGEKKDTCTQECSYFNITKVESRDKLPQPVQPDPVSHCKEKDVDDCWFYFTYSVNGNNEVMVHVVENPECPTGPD

Row | SMILES | IC50 [1] [nM] | IC50 [2] [nM] | IC50 [3] [nM]
1 | COc1ccc(F)c(F)c1C(C)(C)C(=O)N[C@@H](CCOCCCCc1ccc2c(n1)NCCC2)C(=O)O [Compound 4, N-(2-(2,3-difluoro-6-methoxyphenyl)-2-methylpropanoyl)-O-(4-(5,6,7,8-tetrahydro-1,8-naphthyridin-2-yl)butyl)-L-homoserine] | 50 to 150 | ≥ 500 | 150 to 250
2 | O=C(N[C@@H](CCOCCCCc1ccc2c(n1)NCCC2)C(=O)O)c1ccnn1-c1ccccc1 [Compound 99, N-(1-phenyl-1H-pyrazole-5-carbonyl)-O-(4-(5,6,7,8-tetrahydro-1,8-naphthyridin-2-yl)butyl)-L-homoserine] | < 50 | < 50 | 50 to 150
3 | CS(=O)(=O)c1ccccc1C1(C(=O)N[C@@H](CCOCCCCc2ccc3c(n2)NCCC3)C(=O)O)CC1 [Compound 46, N-(1-(2-(methylsulfonyl)phenyl)cyclopropane-1-carbonyl)-O-(4-(5,6,7,8-tetrahydro-1,8-naphthyridin-2-yl)butyl)-L-homoserine] | 50 to 150 | ≥ 500 | 250 to 500
4 | O=C(O)[C@H](CCOCCCCc1ccc2c(n1)NCCC2)NC(=O)C1(c2ncc(F)cc2Cl)CC1 [Compound 14, N-(1-(3-chloro-5-fluoropyridin-2-yl)cyclopropane-1-carbonyl)-O-(4-(5,6,7,8-tetrahydro-1,8-naphthyridin-2-yl)butyl)-L-homoserine] | < 50 | ≥ 500 | < 50
5 | O=C(O)[C@H](CCOCCCCc1ccc2c(n1)NCCC2)NC(=O)C1(n2ccc(Cl)n2)CC1 [Compound 55, N-(1-(3-chloro-1H-pyrazol-1-yl)cyclopropane-1-carbonyl)-O-(4-(5,6,7,8-tetrahydro-1,8-naphthyridin-2-yl)butyl)-L-homoserine] | < 50 | ≥ 500 | 50 to 150
6 | Cc1cccc(C2(C(=O)N[C@@H](CCOCCCCc3ccc4c(n3)NCCC4)C(=O)O)CC2)n1 [Compound 20, N-(1-(6-methylpyridin-2-yl)cyclopropane-1-carbonyl)-O-(4-(5,6,7,8-tetrahydro-1,8-naphthyridin-2-yl)butyl)-L-homoserine] | 250 to 500 | ≥ 500 | ≥ 500
7 | COc1cccc(=O)n1C1(C(=O)N[C@@H](CCOCCCCc2ccc3c(n2)NCCC3)C(=O)O)CC1 [Compound 92, N-(1-(6-methoxy-2-oxopyridin-1(2H)-yl)cyclopropane-1-carbonyl)-O-(4-(5,6,7,8-tetrahydro-1,8-naphthyridin-2-yl)butyl)-L-homoserine] | 50 to 150 | > 500 | 50 to 150
8 | O=C(O)[C@H](CCOCCCCc1ccc2c(n1)NCCC2)NC(=O)C1(c2ccccc2Cl)CC1 [Compound 6, N-(1-(2-chlorophenyl)cyclopropane-1-carbonyl)-O-(4-(5,6,7,8-tetrahydro-1,8-naphthyridin-2-yl)butyl)-L-homoserine] | < 50 | ≥ 500 | < 50
9 | O=C(O)[C@H](CCOCCCCc1ccc2c(n1)NCCC2)NC(=O)C1(c2[nH]c(=O)ccc2Cl)CC1 [Compound 66, N-(1-(3-chloro-6-oxo-1,6-dihydropyridin-2-yl)cyclopropane-1-carbonyl)-O-(4-(5,6,7,8-tetrahydro-1,8-naphthyridin-2-yl)butyl)-L-homoserine] | < 50 | ≥ 500 | < 50
10 | O=C(O)[C@H](CCOCCCCc1ccc2c(n1)NCCC2)NC(=O)C1(n2nc(Cl)cc2Cl)CC1 [Compound 69, N-(1-(3,5-dichloro-1H-pyrazol-1-yl)cyclopropane-1-carbonyl)-O-(4-(5,6,7,8-tetrahydro-1,8-naphthyridin-2-yl)butyl)-L-homoserine] | < 50 | 250 to 500 | < 50
11 | O=C(O)[C@H](CCOCCCCc1ccc2c(n1)NCCC2)NC(=O)C1(c2cccc(F)c2)CCOCC1 [Compound 88, N-(4-(3-fluorophenyl)tetrahydro-2H-pyran-4-carbonyl)-O-(4-(5,6,7,8-tetrahydro-1,8-naphthyridin-2-yl)butyl)-L-homoserine] | < 50 | > 500 | < 50
12 | Cn1cc(C#N)c(C2(C(=O)N[C@@H](CCOCCCCc3ccc4c(n3)NCCC4)C(=O)O)CC2)n1 [Compound 75, N-(1-(4-cyano-1-methyl-1H-pyrazol-3-yl)cyclopropane-1-carbonyl)-O-(4-(5,6,7,8-tetrahydro-1,8-naphthyridin-2-yl)butyl)-L-homoserine] | < 50 | ≥ 500 | < 50
13 | O=C(O)[C@H](CCOCCCCc1ccc2c(n1)NCCC2)NC(=O)C1(c2ncsc2Cl)CC1 [Compound 82, N-(1-(5-chlorothiazol-4-yl)cyclopropane-1-carbonyl)-O-(4-(5,6,7,8-tetrahydro-1,8-naphthyridin-2-yl)butyl)-L-homoserine] | < 50 | ≥ 500 | < 50
